Experiment [1] is described as follows: A High Throughput Confirmatory Assay used to Identify Novel Compounds that Inhibit Mycobacterium Tuberculosis in the absence of Glycerol. It is filed as functional.
The target in experiment [2] is Genome polyprotein (dengue virus type 2, UniProt P29990). As to the kind of experiment: Dengue-2 NS5 methyltransferase inhibitors, primary screen, biochemical, confirmation dose response (AID 588689). It is filed as functional.
A short description of experiment [3]: Luminescence Cell-Based Dose Retest to Confirm Inhibitors of Cancer Stem Cells. [Related pubchem assays (depositor defined):AID2717, AID2721]. The note with it: Homo sapiens. The class given is functional.
Experiment [4] addresses Genome polyprotein (Hepatitis C virus, UniProt Q2Q167). As to the kind of experiment: HCV core protein dimerization inhibitors, dose response, biochemical, TR-FRET (AID 2159).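 Further: blocks dimerization of HCV core protein measured by TR-FRET between tagged core106 pairs.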 Also noted: species or system Hepacivirus hominis.
A further experiment concerns the target T1, Protein Tat (Human immunodeficiency virus type 1 group M subtype B (isolate HXB2)(HIV-1), UniProt P04608).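 Further: tat binding to TAR RNA read out by fluorescence polarization.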
T1 sequence (P04608 whole entry): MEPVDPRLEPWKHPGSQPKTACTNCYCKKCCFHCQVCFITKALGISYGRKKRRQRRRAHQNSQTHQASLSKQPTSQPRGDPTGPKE
The class given is functional.

The target of experiment [5] is DNA (cytosine-5)-methyltransferase 1 (Homo sapiens, UniProt P26358). As to the kind of experiment: DNMT1 methyltransferase inhibitors, confirmation, biochemical, fluorescent molecular beacon (AID 602386). It is filed as functional.
The nature of experiment [6]: microbe, parasite or virus in culture. It is filed as functional. To be noted: Mycobacterium tuberculosis.
The nature of experiment [7]: THP-1 cell cytotoxicity, dose response, cytotoxicity control for non-replicating M. tuberculosis project (AID 489025). It is filed as functional.
Experiment [8] addresses Matrix metalloproteinase-14 (Homo sapiens, UniProt P50281). Nature of the experiment: Dose Response confirmation of uHTS hits for a small molecule inhibitors of MT1-MMP activation in a fluorescence assay set 2. It is filed as functional.
For a further experiment, the system named is Vero. Nature of the experiment: Vero cell cytotoxicity, cytotoxicity control for flavivirus capping enzyme inhibitors (AID 588742). The class given is functional. To be noted: Chlorocebus sabaeus.
Experiment [9] is described as follows: THP-1 cell cytotoxicity, dose response, cytotoxicity control for Vif-APOBEC3G degradation inhibitor project, THP-1 cells (AID 1117359). It is filed as functional. The note with it: Human immunodeficiency virus 1, THP-1.
Another experiment can be described thus: cells. It is filed as functional.
For experiment [10], the target named is Platelet-activating factor acetylhydrolase (Mus musculus, UniProt Q60963). As to the kind of experiment: Late stage assay provider results from the probe development effort to identify inhibitors of plasma platelet activating factor acetylhydrolase (pPAFAH): fluorescence-based dose response biochemical gel-based competitive Activity-Based Protein Profiling (ABPP) assay for HTS compounds. [Related pubchem assays (depositor defined):AID463082, AID463092, AID463230, AID588474]. The class given is cell-free.

The target in experiment [11] is T2, Caspase-3 (Homo sapiens, UniProt P42574).
T2 sequence (P42574 whole entry): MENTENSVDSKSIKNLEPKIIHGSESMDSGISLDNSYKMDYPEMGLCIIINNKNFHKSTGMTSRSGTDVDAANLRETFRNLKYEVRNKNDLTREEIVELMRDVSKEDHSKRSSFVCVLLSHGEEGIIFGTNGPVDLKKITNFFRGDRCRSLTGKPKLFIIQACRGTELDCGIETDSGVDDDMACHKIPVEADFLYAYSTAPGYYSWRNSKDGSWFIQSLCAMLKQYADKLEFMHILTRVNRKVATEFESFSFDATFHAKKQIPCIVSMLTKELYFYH
As to the kind of experiment: caspase-3 inhibitors as off-family protease, SAR follow-up, selectivity assay for SENP protease inhibitor project, biochemical, luminescence, set 2 (AID 588599). The class given is functional.

For experiment [12], the target named is T3, Sentrin-specific protease 8 (Homo sapiens, UniProt Q96LD8).
T3 sequence (Q96LD8 whole entry): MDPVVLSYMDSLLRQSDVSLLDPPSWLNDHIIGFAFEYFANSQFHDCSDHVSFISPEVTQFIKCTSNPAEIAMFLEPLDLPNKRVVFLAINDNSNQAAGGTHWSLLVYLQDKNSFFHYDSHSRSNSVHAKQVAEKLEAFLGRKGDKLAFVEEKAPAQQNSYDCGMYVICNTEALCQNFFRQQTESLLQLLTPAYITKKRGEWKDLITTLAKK
Nature of the experiment: SENP8 protease inhibitors, SAR follow-up, biochemical, luminescence, set 2 (AID 588601). It is filed as functional.

In experiment [13] the target is T4, Sentrin-specific protease 6 (Homo sapiens, UniProt Q9GZR1).
T4 sequence (Q9GZR1 whole entry): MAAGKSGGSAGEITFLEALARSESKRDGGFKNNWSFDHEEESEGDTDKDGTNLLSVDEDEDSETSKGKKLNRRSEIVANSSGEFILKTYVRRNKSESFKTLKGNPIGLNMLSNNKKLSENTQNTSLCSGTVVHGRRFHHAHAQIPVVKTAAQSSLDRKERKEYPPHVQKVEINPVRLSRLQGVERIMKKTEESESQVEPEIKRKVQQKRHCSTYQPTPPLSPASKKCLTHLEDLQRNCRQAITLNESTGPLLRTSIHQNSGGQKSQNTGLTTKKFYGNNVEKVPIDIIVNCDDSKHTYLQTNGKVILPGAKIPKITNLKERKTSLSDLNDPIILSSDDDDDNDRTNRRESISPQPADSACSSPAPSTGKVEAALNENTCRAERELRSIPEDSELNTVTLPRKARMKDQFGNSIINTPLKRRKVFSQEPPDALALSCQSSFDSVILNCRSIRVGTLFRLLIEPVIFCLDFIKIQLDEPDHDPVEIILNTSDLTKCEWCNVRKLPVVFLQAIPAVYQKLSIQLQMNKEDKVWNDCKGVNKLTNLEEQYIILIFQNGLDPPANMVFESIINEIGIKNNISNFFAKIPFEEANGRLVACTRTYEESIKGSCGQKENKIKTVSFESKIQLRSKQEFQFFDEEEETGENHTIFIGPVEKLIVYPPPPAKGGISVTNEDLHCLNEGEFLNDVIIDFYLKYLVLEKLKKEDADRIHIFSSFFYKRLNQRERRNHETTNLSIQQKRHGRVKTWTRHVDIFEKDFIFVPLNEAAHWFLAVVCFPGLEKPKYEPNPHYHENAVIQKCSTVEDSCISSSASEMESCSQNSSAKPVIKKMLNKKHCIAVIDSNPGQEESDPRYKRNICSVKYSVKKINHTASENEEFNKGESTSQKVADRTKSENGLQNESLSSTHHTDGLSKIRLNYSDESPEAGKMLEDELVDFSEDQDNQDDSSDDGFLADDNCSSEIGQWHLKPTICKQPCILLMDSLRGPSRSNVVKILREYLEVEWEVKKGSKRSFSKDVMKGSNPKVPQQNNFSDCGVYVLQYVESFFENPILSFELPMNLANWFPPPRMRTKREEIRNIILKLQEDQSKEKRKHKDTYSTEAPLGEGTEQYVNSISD
Nature of the experiment: SENP6 protease inhibitors, SAR follow-up, biochemical, luminescence, set 2 (AID 588598). It is filed as functional.

Experiment [14] deals with T5, Sentrin-specific protease 7 (Homo sapiens, UniProt Q9BQF6).
T5 sequence (Q9BQF6 whole entry): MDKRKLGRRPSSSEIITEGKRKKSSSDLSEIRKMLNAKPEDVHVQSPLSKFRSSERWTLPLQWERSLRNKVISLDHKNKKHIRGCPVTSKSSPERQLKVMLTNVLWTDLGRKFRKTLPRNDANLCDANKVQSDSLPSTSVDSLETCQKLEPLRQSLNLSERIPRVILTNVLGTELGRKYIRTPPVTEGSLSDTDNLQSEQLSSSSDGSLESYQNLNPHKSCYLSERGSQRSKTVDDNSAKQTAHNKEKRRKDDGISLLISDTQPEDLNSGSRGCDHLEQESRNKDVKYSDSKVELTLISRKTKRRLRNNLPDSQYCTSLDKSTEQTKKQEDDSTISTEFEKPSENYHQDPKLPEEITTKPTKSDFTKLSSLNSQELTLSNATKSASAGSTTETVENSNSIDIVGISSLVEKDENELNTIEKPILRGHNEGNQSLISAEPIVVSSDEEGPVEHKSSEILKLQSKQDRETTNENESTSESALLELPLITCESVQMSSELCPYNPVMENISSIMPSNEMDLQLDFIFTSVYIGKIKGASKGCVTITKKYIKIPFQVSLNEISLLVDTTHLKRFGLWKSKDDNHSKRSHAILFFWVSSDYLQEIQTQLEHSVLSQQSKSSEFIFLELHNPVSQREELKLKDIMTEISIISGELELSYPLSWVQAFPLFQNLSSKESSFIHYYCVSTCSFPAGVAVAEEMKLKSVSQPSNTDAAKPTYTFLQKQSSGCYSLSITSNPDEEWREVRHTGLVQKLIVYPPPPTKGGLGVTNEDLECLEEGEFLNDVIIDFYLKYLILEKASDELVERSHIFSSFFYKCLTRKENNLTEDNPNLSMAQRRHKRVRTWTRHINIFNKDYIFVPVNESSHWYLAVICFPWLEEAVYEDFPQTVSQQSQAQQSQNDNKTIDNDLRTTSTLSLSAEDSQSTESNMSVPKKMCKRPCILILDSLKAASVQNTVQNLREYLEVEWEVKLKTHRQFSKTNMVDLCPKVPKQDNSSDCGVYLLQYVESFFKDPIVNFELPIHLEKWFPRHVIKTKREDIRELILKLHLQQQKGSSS
As to the kind of experiment: SENP7 protease inhibitors, SAR follow-up, biochemical, luminescence, set 2 (AID 588600). The class given is functional.

Experiment [15] can be described thus: A Cell Based Secondary Assay to Explore Cytotoxicity in THP-1 Cells of Compounds that Modulate Mycobacterium tuberculosis in Media Containing Glycerol versus Media without Glycerol (2). It is filed as functional.
Experiment [16] in a line: Vero cell cytotoxicity, cytotoxicity control for M. tuberculosis inhibitor project, purified and synthesized samples, set 3 (AID 504684). It is filed as functional. The note with it: […].
The nature of experiment [17]: A Cell Based Secondary Assay to Explore Cytotoxicity in HepG2 Cells of Compounds that Modulate Mycobacterium tuberculosis in Media Containing Glycerol versus Media without Glycerol (2). It is filed as functional.
Experiment [18] has as its target T3, Sentrin-specific protease 8. The class given is functional.
For experiment [19], the target named is T5, Sentrin-specific protease 7. As to the kind of experiment: SENP7 protease inhibitors, SAR follow-up, biochemical, luminescence (AID 504497). The class given is functional.
The target in experiment [20] is T3, Sentrin-specific protease 8. As to the kind of experiment: SENP8 protease inhibitors, SAR follow-up, biochemical, luminescence (AID 504501). It is filed as functional.
Experiment [21] deals with T2, Caspase-3. The class given is functional.
Experiment [22] addresses T4, Sentrin-specific protease 6. The class given is functional.
In experiment [23] the target is T5, Sentrin-specific protease 7. The class given is functional.
The target in experiment [24] is T2, Caspase-3. Nature of the experiment: SAR Analysis of small molecule inhibitors of Sentrin-specific proteases (SENPs) using a Caspase-3 Selectivity assay. [Related pubchem assays (depositor defined):AID2540, AID2599, AID434973, AID489001]. It is filed as functional.
The target in experiment [25] is T4, Sentrin-specific protease 6. As to the kind of experiment: SAR Analysis of small molecule inhibitors of Sentrin-specific protease 6 (SENP6) using a Luminescent assay. [Related pubchem assays (depositor defined):AID2582, AID2599]. The class given is functional.

Activity calls are given as the source filed them.

One may read the IC50 as the concentration needed to halve the response being measured. The AC50 is the concentration giving half of the maximal activity seen.
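Wherever AC50 is given: cells exposed to compound for roughly 70 hours or longer before luminescence read.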

Chain of Genome polyprotein (Hepatitis C virus, UniProt Q2Q167) (Q2Q167 whole entry): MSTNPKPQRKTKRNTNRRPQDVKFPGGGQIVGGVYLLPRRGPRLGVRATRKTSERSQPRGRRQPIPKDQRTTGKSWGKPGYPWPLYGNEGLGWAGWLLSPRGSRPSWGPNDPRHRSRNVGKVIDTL
Chain of Genome polyprotein (dengue virus type 2, UniProt P29990) (P29990 2492-3391 limits assumed): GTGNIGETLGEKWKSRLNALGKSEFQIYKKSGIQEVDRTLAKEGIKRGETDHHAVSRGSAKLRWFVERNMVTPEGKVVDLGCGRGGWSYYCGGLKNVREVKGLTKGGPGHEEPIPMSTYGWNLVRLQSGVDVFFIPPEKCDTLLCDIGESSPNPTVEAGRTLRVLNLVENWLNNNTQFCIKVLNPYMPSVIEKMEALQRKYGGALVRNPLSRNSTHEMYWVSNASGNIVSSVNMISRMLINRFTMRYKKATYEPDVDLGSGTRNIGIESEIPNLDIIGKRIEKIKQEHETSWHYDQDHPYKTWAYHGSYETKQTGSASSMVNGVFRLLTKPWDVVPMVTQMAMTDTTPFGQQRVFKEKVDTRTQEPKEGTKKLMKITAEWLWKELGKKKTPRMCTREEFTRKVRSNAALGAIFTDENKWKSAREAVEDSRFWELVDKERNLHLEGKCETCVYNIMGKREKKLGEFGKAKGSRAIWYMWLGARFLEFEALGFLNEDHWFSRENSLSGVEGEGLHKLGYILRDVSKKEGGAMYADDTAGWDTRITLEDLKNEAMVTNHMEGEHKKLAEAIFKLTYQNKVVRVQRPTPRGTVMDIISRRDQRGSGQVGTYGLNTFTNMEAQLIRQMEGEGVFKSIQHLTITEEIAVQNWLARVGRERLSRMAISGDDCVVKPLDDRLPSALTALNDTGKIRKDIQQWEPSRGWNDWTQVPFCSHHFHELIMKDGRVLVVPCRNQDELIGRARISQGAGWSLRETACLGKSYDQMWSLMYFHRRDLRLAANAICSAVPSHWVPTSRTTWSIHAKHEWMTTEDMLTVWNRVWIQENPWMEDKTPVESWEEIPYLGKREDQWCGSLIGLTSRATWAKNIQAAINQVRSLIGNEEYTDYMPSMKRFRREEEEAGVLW
Chain of DNA (cytosine-5)-methyltransferase 1 (P26358 whole entry): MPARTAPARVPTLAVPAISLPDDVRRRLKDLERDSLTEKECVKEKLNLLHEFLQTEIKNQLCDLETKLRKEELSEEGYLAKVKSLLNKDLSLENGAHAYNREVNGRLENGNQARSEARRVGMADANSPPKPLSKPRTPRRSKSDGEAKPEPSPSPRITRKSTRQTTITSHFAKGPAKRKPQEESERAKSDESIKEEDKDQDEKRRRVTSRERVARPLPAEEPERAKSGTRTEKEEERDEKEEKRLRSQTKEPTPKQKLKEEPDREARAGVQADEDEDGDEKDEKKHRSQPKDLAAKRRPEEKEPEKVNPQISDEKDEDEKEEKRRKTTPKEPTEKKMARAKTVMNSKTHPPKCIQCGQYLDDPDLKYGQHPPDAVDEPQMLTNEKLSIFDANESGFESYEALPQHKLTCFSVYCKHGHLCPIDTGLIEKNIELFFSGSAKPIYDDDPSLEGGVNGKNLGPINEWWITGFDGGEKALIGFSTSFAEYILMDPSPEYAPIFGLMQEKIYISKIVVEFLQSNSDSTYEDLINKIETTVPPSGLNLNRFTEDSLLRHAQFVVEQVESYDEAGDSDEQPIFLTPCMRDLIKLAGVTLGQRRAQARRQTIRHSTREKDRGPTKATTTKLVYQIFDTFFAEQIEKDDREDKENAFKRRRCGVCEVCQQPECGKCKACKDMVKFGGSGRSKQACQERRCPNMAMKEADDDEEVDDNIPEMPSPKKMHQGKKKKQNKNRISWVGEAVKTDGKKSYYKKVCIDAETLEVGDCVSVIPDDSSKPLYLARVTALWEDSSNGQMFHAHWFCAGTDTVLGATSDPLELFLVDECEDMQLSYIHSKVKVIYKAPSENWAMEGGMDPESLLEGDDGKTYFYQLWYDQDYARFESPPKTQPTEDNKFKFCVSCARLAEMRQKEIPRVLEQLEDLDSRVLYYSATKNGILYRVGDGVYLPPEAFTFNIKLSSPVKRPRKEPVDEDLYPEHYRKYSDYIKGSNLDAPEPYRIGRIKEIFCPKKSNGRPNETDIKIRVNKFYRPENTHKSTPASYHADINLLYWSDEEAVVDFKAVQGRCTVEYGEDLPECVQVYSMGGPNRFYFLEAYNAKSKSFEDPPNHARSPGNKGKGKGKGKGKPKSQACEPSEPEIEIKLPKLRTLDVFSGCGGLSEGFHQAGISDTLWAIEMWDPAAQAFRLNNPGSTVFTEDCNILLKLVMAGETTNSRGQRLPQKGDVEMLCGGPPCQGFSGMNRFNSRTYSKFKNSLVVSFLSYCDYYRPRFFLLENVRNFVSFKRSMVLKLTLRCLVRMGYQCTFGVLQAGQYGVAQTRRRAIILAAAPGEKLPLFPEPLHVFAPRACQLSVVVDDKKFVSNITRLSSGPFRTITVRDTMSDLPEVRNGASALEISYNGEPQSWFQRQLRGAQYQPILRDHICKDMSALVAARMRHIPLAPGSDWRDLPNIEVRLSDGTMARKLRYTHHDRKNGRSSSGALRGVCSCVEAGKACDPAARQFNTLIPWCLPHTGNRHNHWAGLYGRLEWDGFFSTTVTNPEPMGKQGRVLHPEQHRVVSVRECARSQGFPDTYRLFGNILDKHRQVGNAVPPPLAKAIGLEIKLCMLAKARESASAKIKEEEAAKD
Chain of Platelet-activating factor acetylhydrolase (Q60963 whole entry): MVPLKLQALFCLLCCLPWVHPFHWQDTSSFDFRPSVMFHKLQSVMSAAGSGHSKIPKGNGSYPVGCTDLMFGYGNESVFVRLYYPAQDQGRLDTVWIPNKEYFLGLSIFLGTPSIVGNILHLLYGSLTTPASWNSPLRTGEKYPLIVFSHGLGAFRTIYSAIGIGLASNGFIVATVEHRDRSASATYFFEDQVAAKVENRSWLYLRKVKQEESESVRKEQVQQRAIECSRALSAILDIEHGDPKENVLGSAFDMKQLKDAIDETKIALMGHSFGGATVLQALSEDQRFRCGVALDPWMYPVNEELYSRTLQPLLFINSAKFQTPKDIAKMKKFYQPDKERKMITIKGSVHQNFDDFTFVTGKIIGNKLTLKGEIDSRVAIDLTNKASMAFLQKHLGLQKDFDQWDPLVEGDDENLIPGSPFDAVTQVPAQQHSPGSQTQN

As to `Cn1cccc1/C=C1/C(=O)NC(=S)N(Cc2ccc(F)cc2)C1=O`, the IC50 in experiment [1] was > 100 µM (active); on Genome polyprotein [2], > 100 µM (active); on Genome polyprotein [4] it was > 49.8 µM (not active); on Protein Tat, > 100 µM (active); in experiment [5], 3.55 µM (active); in experiment [8] it was 55.3 µM (inactive). Also, in the experiment “cells”, the IC50 is 33.9 µM (active). Also, the AC50 in [3] was 1.18 µM (active). Further, the CC50 in experiment [6] is 23 µM (active); in [7], 14.5 µM (active); in the experiment with Vero it was > 40 µM (active); in experiment [9] it was > 40 µM (active).

Take `CN(C)C(=O)Oc1noc2cc(Cl)ccc12`: the IC50 in experiment [10] is 0.234 µM (active).

As to `O=S(=O)(c1ccc2[nH]cc(/C=N\NC(=S)Nc3cccc(Cl)c3)c2c1)N1CCCCC1`, the IC50 (at Caspase-3 [11]; in experiment [12]; in experiment [13]; in experiment [14]) was > 99 µM (inactive) throughout.

In the case of `Oc1ccccc1/C=N/Nc1ccnc(SCc2ccccc2)n1`, the CC50 in [15] was 57.4 µM (active); in experiment [16] it was 26.7 µM (active); in [17], 18.5 µM (active); in experiment [6], > 40 µM (active).

On to `Cc1cc(O)c(-c2cc(C(=O)Nc3cccnc3)[nH]n2)cc1C`, for which the IC50 in experiment [18] is > 100 µM (inactive); in experiment [19], 2.97 µM (active); in experiment [20], > 99 µM (inactive); on Caspase-3 [21], 32.2 µM (active); in [22] it was > 100 µM (inactive); in experiment [23], 3.61 µM (active). The IC50 at Caspase-3 [24] was 8.64 µM (active); in experiment [25], > 99 µM (inactive).

Source of the values: ChEMBL document CHEMBL1201862, “PubChem BioAssay data set” (2004).
